From patent publication US20110152268A1, “NOVEL PHARMACEUTICAL COMPOSITION FOR TREATING NOCICEPTIVE PAIN” (ASTELLAS PHARMA INC., priority 2008, published 2011)
Where a name gives a salt, the structure may show the parent alone. Read-outs that look alike come from different tables or passages of the source.

Experiments:
[1] = tested on: Bradykinin-Induced Knee Pain Model
Protocol: The induction and evaluation of the present model was basically carried out in accordance with Ann Rheum Dis, 52, 817-822 (1993). A diluted solution, which was diluted with a solvent so as to obtain a vehicle and the compound A having a predetermined concentration, was orally administered to male SD rats (6-7 week old, obtained by Charles River Laboratories Japan, Inc.). This test was carried out for 10 rats of each group. The solvent herein used was distilled water. […] The inhibition rate of the drug to be tested was calculated by setting the difference in weight of a vehicle-administered group to an inhibition rate of 0% and the difference in weight of a normal group to an inhibition rate of 100%. Significant difference testing was carried out by between-group comparison between the vehicle group and the drug group using a Dunnett's t-test after ANOVA testing.

[2] = tested on: Adjuvant-Derived Arthritis Rat; test: Inhibitory effect on the difference in hindlimb weight of adjuvant-derived arthritis rat; assay type: in vivo
Protocol: In this test, female Lewis rats (7-8 weeks old) were used. 50 μL of H37 Ra (manufactured by DIFCO Co.), Mycobacterium tuberculosis suspended with liquid paraffin to a concentration of 10 mg/mL was subcutaneously administered around the right hind footpad. […] The number of rats of each group was 8. The solvent herein used was distilled water. When taking into consideration the period for obtaining a maximum in-blood-concentration, at one hour after administration, the difference in weight between the left and right hindlimbs was measured using an incapacitance tester (manufactured by Linton Instrumentation, Norfolk, UK).

[3] = tested on: Monoiodoacetate (MIA)-Induced Osteoarthritis Model; settings: rats, 3 weeks after MIA administration, inflammation already recovered; cited from earlier work
[4] = tested on: Monoiodoacetate (MIA)-Induced Osteoarthritis Model; test: Analgesic action in monoiodoacetate (MIA)-induced osteoarthritis model (difference in hindlimb weight); assay type: in vivo, rat; settings: male SD rats, 3 weeks after MIA, oral, compound A 30 mg/kg, 1 hour after administration
Protocol: The present disease model was produced based on the description of Toxicol Pathol 31 (6), 619-624 (2003). […] MIA was dissolved in physiological saline and 50 μl of the resulting solution was administered with a needle (26 gauge, 0.5 inch). […] The solvent herein used was distilled water. One hour after administration, the difference in weight between the left and right hindlimbs was measured using an incapacitance tester (manufactured by Linton Instrumentation, Norfolk, UK).

[5] = tested on: Bradykinin-Induced Knee Pain Model; settings: as a joint injection; cited from earlier work
[6] = compound A 10 mg/kg vs duloxetine 30 mg/kg, oral

CNCC[C@H](Oc1cccc2ccccc12)c1cccs1 [duloxetine, (S)—N-methyl-γ-(1-naphthalenyloxy)-2-thiophenepropanamine]
improvement effect (inhibition rate) on pain behavior score ([1]; rat, in vivo, po, 30 mg/kg): 56%

C1=Cc2cccc(OCC3CNCCO3)c2C1 (single isomer, unassigned; (+)) [compound A benzenesulfonate, (+)-2-[(inden-7-yloxy)methyl]morpholine]
improvement effect (inhibition rate) on pain behavior score ([1]; male SD rats, oral, 10 mg/kg, bradykinin injected 1 hour after administration): 55%

CNCC[C@H](Oc1cccc2ccccc12)c1cccs1 [duloxetine hydrochloride, (S)—N-methyl-γ-(1-naphthalenyloxy)-2-thiophenepropanamine]
improvement effect (inhibition rate) on the difference in hindlimb weight ([2]; rat, in vivo, po, 30 mg/kg): 63%

O=C(O)Cc1ccccc1Nc1c(Cl)cccc1Cl [diclofenac]
effectiveness of NSAIDs on pain in this stage of the MIA model [3]: not effective

C1=Cc2cccc(OCC3CNCCO3)c2C1 (single isomer, unassigned; (+)) [compound A, (+)-2-[(inden-7-yloxy)methyl]morpholine]
improvement effect relative to duloxetine [1, 6]: ~3 fold | improvement effect relative to duloxetine [2, 6]: about 3 fold

C1=Cc2cccc(OCC3CNCCO3)c2C1 (single isomer, unassigned; (+)) [compound A hydrobromate, (+)-2-[(inden-7-yloxy)methyl]morpholine]
improvement effect (inhibition rate) on the difference in hindlimb weight [4]: 54% | improvement effect (inhibition rate) on the difference in hindlimb weight ([2]; female Lewis rats, day after adjuvant, oral, 10 mg/kg, 1 hour after administration): 65%

hyaluronan
effectiveness in the bradykinin model [5]: effective

COc1ccc2c(c1)c(CC(=O)O)c(C)n2C(=O)c1ccc(Cl)cc1 [indomethacin]
effectiveness of NSAIDs on pain in this stage of the MIA model [3]: not effective
